Results: US4140769A, “3-Substituted salicylamides” (Miles Laboratories, Inc., priority 1978, dated 1979)
Structures can show the parent of a compound that is named as a salt. Where two headings read alike, the source gives them in different places.

How the values were obtained:
[1] = test system: abdominal constriction response; test: abdominal constriction response (analgesic activity, acetylcholine chloride-induced, s.c. dosing); type: in vivo, mice; conditions: for ED50: Mus musculus, sc; for analgesic activity, in words: Table II conclusions and summary; for analgesic activity (no activity): at 20 mg/kg, hydrochloride; for ED50 / potency, in words: compared with control compound, other examples
Description: The analgesic activity of the compounds of the present invention was tested in mice by means of the "abdominal constriction" response. The test is based on the observation that following interperitoneal injection of a noxious agent, such as acetylcholine chloride, mice show a response which consists of a wave of constriction and elongation passing caudally along the abdominal wall, sometimes accompanied by twisting of the trunk and followed by extension of the hind limbs. […] Non-fasted female mice, weighing between 20 and 25 g, were used in the studies. […] The animals were then placed in a circular glass enclosure and the number of responses counted during a given time period. Compounds completely inhibiting the response to acetycholine in at least five out of ten animals were subsequently tested at reduced dosage levels, using groups of ten animals per dose. The dose required to produce a specified response, that is, analgesic effect, is termed the individual effective dose; the response is a quantal rather than a graded response, since it is either present or absent. The cumulative frequency distribution of individual effective doses obtained, plotted as a function of logarithm of dose, is known as a dose-percent or dose-response curve. The ED50 and ED90 is then calculated from the dose-response curve obtained in the above experiments. […] The expression ED90 indicates the amount of compound required to produce an analgesic effect in 90 percent of animals tested.

[2] = test system: abdominal constriction response; test: duration of analgesic activity (abdominal constriction response, time for 50 percent decay of the analgesic effect of the ED90 dosage); type: in vivo, mice; conditions: for increase in duration of activity versus unsubstituted control compound (factor): in comparison to the unsubstituted control compound; for Duration of Activity 1/2 T: time to 50 percent decay of analgesic effect, pharmacologically equipotent doses, based on ED90 dosages
Description: The analgesic activity of the compounds of the present invention was tested in mice by means of the "abdominal constriction" response. The test is based on the observation that following interperitoneal injection of a noxious agent, such as acetylcholine chloride, mice show a response which consists of a wave of constriction and elongation passing caudally along the abdominal wall, sometimes accompanied by twisting of the trunk and followed by extension of the hind limbs. […] Non-fasted female mice, weighing between 20 and 25 g, were used in the studies. […] The animals were then placed in a circular glass enclosure and the number of responses counted during a given time period.

[3] = subcutaneous, 10 min before i.p. acetylcholine chloride (3.2 mg/kg), mice, read-out: ED50

## CCN(CC)CCNC(=O)c1ccccc1O.Cl [Control, N-(2-diethylaminoethyl)salicylamide hydrochloride, reference compound]
[1]; [3]
  ED50: 16.6 mg/kg
[1]; mice
  analgesic activity, in words: exhibited analgesic activity

## CCCCCCCCc1cccc(C(=O)NCCN(CC)CC)c1O [Example 3, N-(2-diethylaminoethyl)-3-n-octylsalicylamide hydrochloride]
[1]
  analgesic activity (no activity): no activity
[1]; listed as n-octyl
  analgesic activity (no activity): no analgesic activity

## CCN(CC)CCNC(=O)c1cccc(CC(C)C)c1O [Example 5, N-(2-diethylaminoethyl)-3-isobutylsalicylamide hydrochloride]
[2]
  increase in duration of activity versus unsubstituted control compound (factor): greater than 5 fold
  Duration of Activity 1/2 T: 205 min
[1]; [3]
  ED50: 44.5 mg/kg

## CCN(CC)CCNC(=O)c1cccc(C)c1O [Example 2, N-(2-diethylaminoethyl)-3-methylsalicylamide hydrochloride]
[2]; compared with control or prior art compounds
  duration of analgesic activity, in words: no meaningful increase in the duration of analgesic activity
[2]
  Duration of Activity 1/2 T: < 40 min
[1]
  ED50: 14.2 mg/kg
  ED50 / potency, in words: fairly low ED50
[1]; mice
  analgesic activity, in words: exhibited analgesic activity

## C=CCc1cccc(C(=O)NCCN(CC)CC)c1O [Example 8, N-(2-diethylaminoethyl)-3-allylsalicylamide oxalate]
[2]
  Duration of Activity 1/2 T: 80 min
[1]; [3]
  ED50: 17.2 mg/kg

## CCN(CC)CCNC(=O)c1cccc(C(C)(C)CC)c1O [Example 7, N-(2-diethylaminoethyl)-3-t-amylsalicylamide hydrochloride]
[1]
  analgesic activity (no activity): no activity
[1]; listed as amyl
  analgesic activity (no activity): no analgesic activity

## CCN(CC)CCNC(=O)c1cccc(C(C)(C)C)c1O [Example 6, N-(2-diethylaminoethyl)-3-t-butylsalicylamide hydrochloride]
[2]
  Duration of Activity 1/2 T: 120 min
[1]; [3]
  ED50: 14.3 mg/kg
[1]
  ED50 / potency, in words: substantially at the same potency as that of the control compound

## C=C(C)Cc1cccc(C(=O)NCCN(CC)CC)c1O [Example 9, N-(2-diethylaminoethyl)-3-methallylsalicylamide oxalate]
[2]
  Duration of Activity 1/2 T: 60 min
[1]; [3]
  ED50: 23.8 mg/kg
[1]
  ED50 / potency, in words: substantially at the same potency as that of the control compound

## CCN(CC)CCNC(=O)c1cccc(Cl)c1O [Example 10, N-(2-diethylaminoethyl)-3-chlorosalicylamide hydrochloride]
[1]
  analgesic activity (no activity): no activity
[1]; listed as 3-chloro
  analgesic activity (no activity): no analgesic activity

## CCCCc1cccc(C(=O)NCCN(CC)CC)c1O [Example 4, N-(2-diethylaminoethyl)-3-n-butylsalicylamide oxalate]
[2]
  increase in duration of activity versus unsubstituted control compound (factor): greater than 5 fold
  Duration of Activity 1/2 T: 125 min
[1]; [3]
  ED50: 31 mg/kg
[1]
  ED50 / potency, in words: less active analgesics than the other examples and the control sample

## CCN(CC)CCNC(=O)c1cccc(C(C)C)c1O [Example 1, N-(2-diethylaminoethyl)-3-isopropylsalicylamide hydrochloride]
[2]
  Duration of Activity 1/2 T: 80 min
[1]; [3]
  ED50: 12.7 mg/kg
[1]
  ED50 / potency, in words: substantially at the same potency as that of the control compound
